# Data reported in US10550165B2, “Peptide for inducing regeneration of tissue and use thereof” (STEMRIM INC., priority 2011, dated 2020).
# Test system: mouse bone marrow mesenchymal stem cell line (MSC-1 cells), PDGFRα-positive
# Assay: Migration assay (Boyden / 48-well chemotaxis chamber) on bone marrow mesenchymal stem cell line MSC-1
# Assay type: cell-based
# Conditions: peptides produced using HEK293, concentration not stated
# Procedure: Cells of a mouse bone marrow mesenchymal stem cell line (MSC-1 cells, established by Tamai et al. of Osaka University (PDGFRα-positive cells in bone marrow are mobilized by high mobility group box 1 (HMGB1) to regenerate injured epithelia. (Tamai et al., Proc Natl Acad Sci USA. Apr. 4, 2011))) were detached from dishes using trypsin, and collected by centrifugation at 1200 rpm and 4° C. for 10 minutes. The resulting pellet was loosened and suspended at a cell concentration of 2.0×10^6 to 3.0×10^6 cells/ml by adding Dulbecco's Modified Eagle Medium (D-MEM) containing 10% fetal bovine serum (FBS). The recombinant protein and peptides produced in HEK293 were diluted with D-MEM containing 10% FBS. The negative control used was phosphate buffered saline (PBS). An acrylic Boyden chamber was used; cells of the mouse bone marrow mesenchymal stem cell line prepared at a cell concentration of 3×10^6 cells/ml were placed in its upper layer, while a diluted protein or peptide is added to the bottom layer. More specifically, a 28 μl aliquot of a protein or peptide solution was added to each well of the bottom plate of a 48-well chemotaxis chamber (NEURO PROBE 48WELL CHEMOTAXIS CHAMBER), and a polycarbonate membrane with 8 μm pores (Neuro Probe, Inc, Cat: 866-417-0014) was placed on the bottom plate. Then, an upper plate was placed on the membrane and screwed tightly. 50 μl of cells of the mouse bone marrow mesenchymal stem cell line after concentration adjustment were added to the upper plate wells. The chamber was placed in an incubator under 5% CO2 at 37° C. After four hours, the membrane was removed from the chamber and stained with Diff-Quik (Sysmex, Cat: 16920) to detect cells that migrated through membrane pores to the lower compartment.
# The peptides listed below were custom synthesized using the solid phase method by Medical & Biological Laboratories (MBL). The peptides were synthesized based on the mouse HMGB1 sequence (SEQ ID NO: 3). Synthetic peptides described in subsequent Examples were also prepared based on the mouse HMGB1 sequence. • A synthetic peptide consisting of the amino acid sequence from positions 1 to 10 of HMGB1 (1-10); • a synthetic peptide consisting of the amino acid sequence from positions 1 to 34 of HMGB1 (1-34); • a synthetic peptide consisting of the amino acid sequence from positions 37 to 62 of HMGB1 (37-62); • a synthetic peptide consisting of the amino acid sequence from positions 27 to 62 of HMGB1 (27-62); • a synthetic peptide consisting of the amino acid sequence from positions 56 to 72 of HMGB1 (56-72); • a synthetic peptide consisting of the amino acid sequence from positions 11 to 20 of HMGB1 (11-20); • a synthetic peptide consisting of the amino acid sequence from positions 11 to 25 of HMGB1 (11-25); • a synthetic peptide consisting of the amino acid sequence from positions 11 to 30 of HMGB1 (11-30); • a synthetic peptide consisting of the amino acid sequence from positions 11 to 34 of HMGB1 (11-34); • a synthetic peptide consisting of the amino acid sequence from positions 11 to 44 of HMGB1 (11-44); • a synthetic peptide consisting of the amino acid sequence from positions 17 to 44 of HMGB1 (17-44); • a synthetic peptide consisting of the amino acid sequence from positions 1 to 25 of HMGB1 (1-25); and the whole mouse HMGB1 produced in HEK293 (1-215(HEK)) as a positive control were adjusted to 100 μg/ml and placed in the lower layer of a chemotaxis chamber to assess the migration-promoting activity on bone marrow mesenchymal stem cell line (MSC-1). Results
# As positive controls, centrifuged supernatant of the skin of a one-day-old mouse (one individual) incubated in PBS at 4° C. for 12 hours, and the whole mouse HMGB1 (HMGB1(HEK_1-215)) produced in HEK293 were used. […]
row,Substance,activity of promoting the migration of MSC-1
1,"1-42: peptide comprising the amino acid sequence of positions 1 to 42, produced using HEK293 (MGKGDPKKPRGKMSSYAFFVQTCREEHKKKHPDASVNFSEFS; UniProt P63158 1-42, looked up, fragment)",showed the activity of promoting the migration of bone marrow mesenchymal stem line MSC-1
2,"1-43: peptide comprising the amino acid sequence of positions 1 to 43, produced using HEK293 (MGKGDPKKPRGKMSSYAFFVQTCREEHKKKHPDASVNFSEFSK; UniProt P09429 1-43, looked up, fragment)",showed the activity of promoting the migration of bone marrow mesenchymal stem line MSC-1
3,"1-45: peptide comprising the amino acid sequence of positions 1 to 45, produced using HEK293 (MGKGDPKKPRGKMSSYAFFVQTCREEHKKKHPDASVNFSEFSKKC; UniProt P63158 1-45, looked up, fragment)",showed the activity of promoting the migration of bone marrow mesenchymal stem line MSC-1
4,"1-46: peptide comprising the amino acid sequence of positions 1 to 46, produced using HEK293 (MGKGDPKKPRGKMSSYAFFVQTCREEHKKKHPDASVNFSEFSKKCS; UniProt P63158 1-46, looked up, fragment)",showed the activity of promoting the migration of bone marrow mesenchymal stem line MSC-1
5,"1-47: peptide comprising the amino acid sequence of positions 1 to 47, produced using HEK293 (MGKGDPKKPRGKMSSYAFFVQTCREEHKKKHPDASVNFSEFSKKCSE; UniProt P63158 1-47, looked up, fragment)",showed the activity of promoting the migration of bone marrow mesenchymal stem line MSC-1
6,"1-48: peptide comprising the amino acid sequence of positions 1 to 48, produced using HEK293 (MGKGDPKKPRGKMSSYAFFVQTCREEHKKKHPDASVNFSEFSKKCSER; UniProt P09429 1-48, looked up, fragment)",showed the activity of promoting the migration of bone marrow mesenchymal stem line MSC-1
7,"1-49: peptide comprising the amino acid sequence of positions 1 to 49, produced using HEK293 (MGKGDPKKPRGKMSSYAFFVQTCREEHKKKHPDASVNFSEFSKKCSERW; UniProt P09429 1-49, looked up, fragment)",showed the activity of promoting the migration of bone marrow mesenchymal stem line MSC-1
8,"1-50: peptide comprising the amino acid sequence of positions 1 to 50, produced using HEK293 (MGKGDPKKPRGKMSSYAFFVQTCREEHKKKHPDASVNFSEFSKKCSERWK; UniProt P63158 1-50, looked up, fragment)",showed the activity of promoting the migration of bone marrow mesenchymal stem line MSC-1
9,"1-51: peptide comprising the amino acid sequence of positions 1 to 51, produced using HEK293 (MGKGDPKKPRGKMSSYAFFVQTCREEHKKKHPDASVNFSEFSKKCSERWKT; UniProt P09429 1-51, looked up, fragment)",showed the activity of promoting the migration of bone marrow mesenchymal stem line MSC-1
10,"1-52: peptide comprising the amino acid sequence of positions 1 to 52, produced using HEK293 (MGKGDPKKPRGKMSSYAFFVQTCREEHKKKHPDASVNFSEFSKKCSERWKTM; UniProt P09429 1-52, looked up, fragment)",showed the activity of promoting the migration of bone marrow mesenchymal stem line MSC-1
